Reference: patent US20040087561A1, “Treatment of sexual dysfunction” (priority 2000, published 2004)
Where two headings read alike, the source gives them in different places. Values belong to the compound of their own block, whether it stands above or below them.

Legend:
[1] = tested on: ovariectomised female Sprague Dawley rats; assay: Female rat sexual receptivity (lordosis quotient); format: in vivo; conditions: for lordosis quotient (LQ) compared to LQ before administration: quinelorane 6.25 μg/kg s.c., 90 min
Description: (§1) Ovariectomised adult female Sprague Dawley rats (180-200 g, from Charles River) were housed in groups of 6 in a reversed lighting system of 12 h light:dark (lights off 7.00-19.00 h). Two weeks after ovariectomy they were used for sexual activity tests. The experiments started at least 5 h into the dark period.
Compound (1) was dissolved in 100% β-cyclodextrin and then diluted with saline to a final solution of 50% 2-hydroxypropyl-β-cyclodextrin. It was administered intraperitoneally (i.p.) at a dose of 10 mg/kg, in a dosing volume of 1 ml/kg. Quinelorane (6.25 μg/kg) was dissolved in water and administered s.c. as positive control. Forty eight hours before testing, ovariectomised female rats (as described above), were primed with 5 μg oestradiol benzoate dissolved in corn oil and injected subcutaneously. […] The females were placed with a series of vigorous male rats and subjected to 10 mounts.
The lordotic response of the animal was recorded and expressed as a percentage of the mounts (i.e. lordosis quotient, LQ), as previously described. Animals showing LQ<20 were considered non-receptive and were included in the study. Each rat was tested prior to administration of the compound and then tested similarly post-injection. The pre-treatment times were 1 h for Compound (1) and vehicle (50% β-cyclodextrin, i.p.) or 90 min for quinelorane.
The above compound was dissolved in PEG200 vehicle and administered orally. Quinelorane dihydrochloride (LY 163,502, 6.25 μg/kg) was dissolved in water and administered subcutaneously (s.c.), as a positive control. Both compounds were administered in a 1 ml/kg volume.
Forty eight hours before tests, the animals were primed with 5 μg oestradiol benzoate (Sigma Chemical. Co. Ltd., UK) dissolved in corn oil and injected subcutaneously. The females were placed with a series of vigorous male rats and subjected to 10 mounts. The lordotic response of the animal was recorded and expressed as a percentage of the mounts (i.e. lordosis quotient, LQ). […] Animals showing higher LQ were not included in the study. Each rat was tested prior to administration of the compound and then tested similarly at 1 h and 90 min post-injection of the above compound or quinelorane respectively.

[2] = tested on: ovariectomised female Sprague Dawley rats; assay: Female rat sexual proceptivity (time investigating male vs female stimulus); format: in vivo; conditions: for MED, percentage of time spent investigating the male stimulus (proceptivity) / percentage of time spent investigating the male stimulus (proceptivity): 1 h before test
Description: as §1
Tests were carried out in a circular arena of 90 cm diameter, surrounded by a 30 cm high wall. Two small cages with wire-mesh front (15×15 cm) are fixed into the wall such that the front of the cage is <> with the wall and the 2 cages are opposite each other. They contained two stimuli animals: an intact sexually experienced male and a receptive female (ovariectomised, primed with 5 μg oestradiol benzoate dissolved in corn oil and injected subcutaneously 48 hours before the test and with 0.5 mg of progesterone four hours before the test). Sexually naive test and control animals were used. Forty eight hours before the tests, both the test and control animals were primed with 5 μg oestradiol benzoate. For animals used as positive controls, progesterone (0.5 mg/0.1 ml) was dissolved in corn oil and administered subcutaneously (s.c.), 4 h before the test. Test and control animals were introduced one at a time for 10 minute periods into the arena. During the 10 min test, the time that the test or positive control animal spent investigating each stimulus animal was noted. The arena was thoroughly cleaned between animals. The position of the male/female stimuli boxes was randomised between animals, in order to avoid place preference. The difference in the percentage of time spent investigating the male minus the female stimuli was calculated, out of the total time spent investigating stimuli animals.
Compound (1) was dissolved in 100% β-cyclodextrin and then diluted with saline to a final solution of 50% 2-hydroxypropyl-β-cyclodextrin. It was administered intraperitoneally (i.p.) at doses of 3 and 10 mg/kg, in a dosing volume of 1 ml/kg, 1 h before tests. Progesterone (0.5 mg/0.1 ml) was dissolved in corn oil and administered subcutaneously (s.c.), 4 h before test, as a positive control.
Ovariectomised adult female Sprague Dawley rats (180-200 g) were housed in groups of 5 in a reversed lighting system of 12 h light:dark (lights off 5.00-17.00 h). They were used for the experiments at least two weeks after ovariectomy. Forty eight hours before tests, the animals were primed with oestradiol benzoate (5 μg/0.1 ml in corn oil, s.c.). On day 1, progesterone (0.5 mg/0.1 ml, in corn oil, s.c.) was administered to one of the groups 4 h before tests, as a positive control. Compound (1) (15 mg/kg, i.p.) was administered in 50% 2-hydroxypropyl-β-cyclodextrin, 1 h before tests. The test lasted 10 minutes and was carried out as described before. The difference in the percentage of time spent investigating the male minus the female stimuli was calculated, out of the total time spent investigating stimuli animals. Animals were submitted to a test on day 1 and on day 15. From day 2 to 14 the Compound (1) group received a daily injection of the compound (15 mg/kg, i.p.), while both the vehicle and the progesterone groups received an injection of vehicle. On day 15 the test took place again, as described for day 1.
Ovariectomised female rats (Sprague Dawley, obtained from Charles River, UK) were stereotaxically implanted (coordinates 0.89 mm behind Bregma, 1.3 mm lateral and 2.5 mm vertical) with stainless steel cannulae (6 mm long, O.D. 0.75 mm), held in place with dental cement. Animals were housed in groups of three and returned to a reversed lighting system of 12 h light:dark (lights off 5.00-17.00 h). Correct placement of the cannulae was assessed post-mortem. Rats were used for tests two weeks after ovariectomy (one week after cannulation). The experiments started at least 5 h into the dark period. […]

human NMB receptor (BB1) = target: T1, human NMB receptor (BB1) (Homo sapiens, UniProt P28336); assay: BB1 binding assay ([125I][Tyr4]bombesin, CHO-K1 cell membranes)
T1 construct: expressed in transfected cells; host or cells: CHO-K1
T1 sequence (P28336 whole entry): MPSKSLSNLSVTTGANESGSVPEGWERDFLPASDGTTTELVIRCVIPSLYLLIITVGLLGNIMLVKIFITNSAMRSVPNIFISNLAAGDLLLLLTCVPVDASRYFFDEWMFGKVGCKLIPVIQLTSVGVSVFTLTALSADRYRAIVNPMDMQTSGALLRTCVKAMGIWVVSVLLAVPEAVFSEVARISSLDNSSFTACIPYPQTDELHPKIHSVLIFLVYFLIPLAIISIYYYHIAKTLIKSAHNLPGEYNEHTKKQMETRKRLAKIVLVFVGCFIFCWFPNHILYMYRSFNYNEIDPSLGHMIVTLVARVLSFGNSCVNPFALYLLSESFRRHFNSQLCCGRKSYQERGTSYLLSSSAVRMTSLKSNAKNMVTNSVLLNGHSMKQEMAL
Description: In the following experiments, measurement of BB1 and BB2 binding was as follows. CHO-K1 cells stably expressing cloned human NMB (for (BB1 assay) and GRP receptors (for BB2 assay) were routinely grown in Ham's F12 culture medium supplemented with 10% foetal calf serum and 2 mM glutamine. For binding experiments, cells were harvested by trypsinization, and stored frozen at −70° C. in Ham's F12 culture medium containing 5% DMSO until required. On the day of use, cells were thawed rapidly, diluted with an excess of culture medium, and centrifuged for 5 minutes at 2000 g. Cells were resuspended in 50 mM Tris-HCl assay buffer (pH 7.4 at 21° C., containing 0.02% BSA, 40 μg/mL bacitracin, 2 μg/mL chymostatin, 4 μg/mL leupeptin, and 2 μM phosphoramidon), counted, and polytronned (setting 5, 10 sec) before centrifuging for 10 minutes at 28,000 g. The final pellet was resuspended in assay buffer to a final cell concentration of 1.5×10^5/mL. For binding assays, 200 μL aliquots of membranes were incubated with [^125I][Tyr^4]bombesin (<0.1 nM) in the presence and absence of test compounds (final assay volume 250 μL) for 60 minutes and 90 minutes for NMB and GRP receptors, respectively. Nonspecific binding was defined by 1 μM bombesin. Assays were terminated by rapid filtration under vacuum onto Whatman GF/C filters presoaked in 0.2% PEI for >2 hours, and washed 50 mM Tris-HC (pH 6.9 at 21° C.; 6×1 mL). Radioactivity bound was determined using a gamma counter.
All competition data was analysed using nonlinear regression utilizing iterative curve-plotting procedures in Prism® (GraphPad Software Inc., San Diego, USA). IC50 values were corrected to Ki values using the Cheng-Prusoff equation (Cheng Y., PrusoffW. H., Biochem. Pharmacol. 22: 3099-3108, 1973).

Sprague Dawley male rats = assay: Sexual behaviour of sexually dysfunctional (fluoxetine-treated) male rats; format: in vivo, rat; conditions: fluoxetine 20 mg/kg i.p. 3 days (vs vehicle+vehicle); day 4 Compound (1) 15 mg/kg or yohimbine 2 mg/kg i.p. 1 h before test (vs fluoxetine+vehicle)
Description: Sprague Dawley male rats (Charles River, UK) were kept, 4 rats per cage, in a reversed lighting regime (12:12 hours, lights off at 5.00 h), with free access to food and water. The rats were pre-selected by being presented with a receptive female at […], i.e. every third day (haying 2 clear days between presentations) until completing 6-7 trials of baseline determination. The animals showing consistently vigorous behaviour (ejaculatory latencies <300 s) were chosen for further experiments. Animals were treated for 3 consecutive days with either vehicle (water) or fluoxetine (20 mg/kg, i.p., in a 2 ml/kg dosing volume). On the fourth day, the animals treated with water received vehicle (veh+veh) and the animals treated with fluoxetine received one of the three following treatments: Compound (1) (15 mg/kg, dissolved in 50% 2-hydroxypropyl-β-cyclodextrin in saline), vehicle (cyclodextrine), or yohimbine (2 mg/kg dissolved in water). All treatments were administered i.p. in a 1 ml/kg volume, 1 h before tests.
For all the sexual behaviour tests, the males were placed in an observation arena (50-60 cm diameter), starting 5 hours into the dark cycle and observed under red illumination. Three to 4 minutes after placing the male in the arena, a receptive female (ovariectomised, bearing a 7 mm Silastic implant of oestradiol benzoate) was introduced to the arena and the following parameters noted: Mount Latency: time (in seconds) taken between introduction of female and first mount. A maximum time of 15 minutes (900 seconds) was allowed, and the test terminated if no mounts were recorded within that time (FIG. 16), Ejaculation Latency: time (in seconds) taken from first intromission to ejaculation. A maximum time of 30 minutes (1800 seconds) was given, and the test terminated if ejaculation was not achieved in that time (FIG. 17), Percentage of males achieving ejaculation within 30 minutes was calculated (FIG. 18).
A one-way ANOVA followed by Dunnett's t test was used to compare the fluoxetine+vehicle group and other groups for mount and ejaculatory latencies. Percentage of animals ejaculating was analysed using a Chi-square test followed by Fisher's test. (*: P<0.05, **: P<0.01, ***: P<0.001; n=15-19).

[3] = Example 31, Compound (2) 10-100 mg/kg oral in PEG200, 1 h
[4] = oral, 30-100 mg/kg in PEG 200 vehicle
[5] = p.o., 3-30 mg/kg in 0.5% methyl cellulose

Compound: COc1ccc(C2(CNC(=O)[C@](C)(Cc3c[nH]c4ccccc34)Nc3nc(-c4ccc([N+](=O)[O-])cc4)co3)CCCCC2)nc1 [Example 9, (S)-3-(1H-Indol-3-yl)-N-[1-(5-methoxy-pridin-2-yl)-cyclohexylmethyl]-2-methyl-2-[4-(4-nitro-phenyl)-oxazol-2-ylamino]-propionamide]
- lordosis quotient (LQ) compared to LQ before administration [1, 3]: dose-dependently (10-100 mg/kg) increased the LQ
- MED, increase of lordosis quotient (LQ) ([1]; Example 31, single oral administration 10-100 mg/kg in PEG200, 1 h after administration): 100 mg/kg
- increase in potency compared to the oral results in the PEG200 vehicle ([2]; MED in 0.5% methyl cellulose vs MED in PEG200, p.o.): 10 fold
- MED, percentage of time spent investigating the male stimulus (proceptivity) [2, 4]: 100 mg/kg
- percentage of time spent investigating the male stimulus (proceptivity) [2, 4]: increased the percentage of time spent investigating the male stimulus
- MED, percentage of time spent investigating the male stimulus (proceptivity) [2, 5]: 10 mg/kg
- percentage of time spent investigating the male stimulus (proceptivity) [2, 5]: increased the percentage of time spent investigating the male stimulus

Compound: COC(=O)[C@@H]1[C@H]2C[C@H]3c4[nH]c5ccccc5c4CCN3C[C@@H]2CC[C@@H]1O [Yohimbine, yohimbine]
- Ejaculation latency (Sprague Dawley male rats): did not reach significance
- Mount latency (Sprague Dawley male rats): did not reach significance
- percentage of animals ejaculating (within 30 minutes) (Sprague Dawley male rats): did not reach significance

Compound: CCCN1CCC[C@@H]2Cc3nc(N)ncc3C[C@H]21 [quinelorane, reference compound]
- lordosis quotient (LQ) compared to LQ before administration ([1]; Example 2, Compound (1) 10 mg/kg i.p., 1 h): significantly (P<0.01) increased the LQ
- lordosis quotient (LQ) compared to LQ before administration [1, 3]: significantly (P<0.01) increased the LQ

Continued, values first:

- IC50 (human NMB receptor (BB1); Table 3): 944 nM
Compound: Cc1ccccc1CC(=O)N[C@@](C)(Cc1c[nH]c2ccccc12)C(=O)NCC1(c2ccccn2)CCCCC1 [Example 51, (S)-3-(1H-Indol-3-yl)-2-methyl-N-(1-pyridin-2-yl-cyclohexylmethyl)-2-(2-o-tolyl-ethanoylamino)-propionamide]

- IC50 (human NMB receptor (BB1)): 214 nM
Compound: C[C@@](Cc1c[nH]c2ccccc12)(NS(=O)(=O)c1cc(Cl)sc1Cl)C(=O)NCC1(c2ccccn2)CCCCC1 [Example 157]

- IC50 (human NMB receptor (BB1); Table 3): 716 nM
Compound: C-Dimethylamino-N—{(S)-2-(1H-indol-3-yl)-1-methyl-1-[(1-pyridin-2-yl-cyclohexyl-methyl)-carbamoyl]-ethyl}-benzamide [Example 48]
